Laboratory results as given in US20260102413A1, “TREATING PAIN ASSOCIATED WITH CENTRAL SENSITIZATION” (Medicon Pharmaceuticals, Inc., priority 2022, published 2026).

Tests used:
[1] = system: mice with paclitaxel-induced neuropathic pain (CIPN); assay: von Frey paw withdrawal threshold (mechanical allodynia), paclitaxel-induced CIPN / central sensitization, treatment of established pain, topical test compounds; type: in vivo, mouse; conditions: for PWT: naproxen 2.4%, aspirin […], ibuprofen 2.5% topical both hind paws 3x/day 14 days; for Paw-withdrawal threshold, g Mean ± SEM, Day 0: group value after paclitaxel, before study drug
Description: Paw withdrawn, licking or shaking were considered positive responses.
(§1) The first doses were administered 5 days after the last administration of paclitaxel (i.e., at day 0).
The PWT test was performed prior to the administration of paclitaxel (day −8) to establish the threshold in mice without neuropathic pain associated with CIPN (the value shown is an average of the PWT in all groups at day −8).
Pain associated with CIPN was established in line with the experiments disclosed herein. Mice were treated with naproxen 2.4% (equimolar to PN 5%), aspirin 1.7% (equimolar to PA2 5%); or ibuprofen 2.5% (equimolar to PI 5%) or vehicle applied topically to both hind paws 3×/day for 14 days.
CIPN was induced in mice with chemotherapeutic agents using established protocols (Carozzi et al, 2010; Currie et al, 2019; Eldridge et al, 2020).
The first doses were administered 1 day after the last administration of paclitaxel (i.e., at day 0).
as §1
The PWT test was performed on day 21, at the end of the experiment, but was also additionally determined on day 14 for LXIX.

[2] = system: mice with paclitaxel-induced CIPN; assay: von Frey PWT, paclitaxel CIPN model, orally administered compounds; type: in vivo, mouse; conditions: for PWT, g: 100 mg/kg oral gavage 3x/day; for PWT: oral gavage 3x/day 6 days: ibuprofen 40, PI 80, PIA 80, PGI 60 mg/kg, day 6
Source text: CIPN was induced in mice with chemotherapeutic agents using established protocols (Carozzi et al, 2010; Currie et al, 2019; Eldridge et al, 2020). […] This dosing regimen of paclitaxel produces pain associated with CIPN with time courses that are similar to those of pain after paclitaxel administration in cancer patients.
Group 1: naïve mice (i.e. no paclitaxel, n=8) • 2. Group 2: paclitaxel only (n=8) • 3. Group 3: paclitaxel plus vehicle (n=8) • 4. […] Group 5: paclitaxel pluse sulindac (n=8)
The PWT test was performed on day 7.
Phospho-naproxen (PN) and naproxen were given by oral gavage, three times a day for 7 days. Their doses were as follows: PN, 65 mg/kg; naproxen, 35 mg/kg (equimolar to PN). The response of mechanical allodynia to phospho-naproxen (PN) and naproxen was tested on day 7.
(§2) This dosing regimen of paclitaxel produces pain associated with CIPN with time courses that are similar to those of pain after paclitaxel administration in cancer patients.
Phospho-ibuprofen (PI) (Formula III), phospho-glycerol-ibuprofen (PGI) (Formula LXXI), phospho-ibuprofen-amide (PIA) (Formula XI), and ibuprofen were given by oral gavage, three times a day for 6 days. Their doses were as follows: ibuprofen, 40 mg/kg; PI, 80 mg/kg; PIA, 80 mg/kg; all three were equimolar.
The response of mechanical allodynia to these compounds was tested on day 6, using the PWT test.
as §2
NO-sulindac (Formula XLIV), HS-sulindac (Formula XXXIV), platinum-sulindac (Formula LXVII), and NOSH-1 (Formula LIX) were given by oral gavage, three times a day throughout the study period. Their doses were all 100 mg/kg.
The response of mechanical allodynia to these compounds was tested on the days set out in the table below, via the PWT test.
LXIX was given by oral gavage, once a day for 14 days at a dose of 100 mg/kg.
The response of mechanical allodynia to these compounds was tested on day 14, via the PWT test.

[3] = system: mice with paclitaxel-induced CIPN; assay: thermal allodynia (paw withdrawal latency, radiant heat), paclitaxel CIPN model; type: in vivo, mouse; conditions: NO-sulindac, HS-sulindac 5% topical 3x/day
Description: Group 3: paclitaxel pluse sulindac (n=8)
Thermal allodynia was also determined for the mice study groups below (with 8 mice per group): • 1. Group 1: naïve mice (i.e. no paclitaxel) • 2. Group 2: paclitaxel only • 3. Group 3: paclitaxel plus vehicle • 4. Group 4: paclitaxel plus NO-sulindace • 5. Group 5: paclitaxel plus thiol-sulindac

[4] = system: mice with chronic constriction injury (PTPN); assay: von Frey PWT, CCI model of PTPN, orally administered compounds; type: in vivo, mouse; conditions: for PWT, g Mean ± SEM: oral 3x/day 14 days: PI 80, PIA 80, ibuprofen 40 mg/kg, day 14
Description: Phospho-ibuprofen (PI) (Formula III), phospho-ibuprofen-amide (PIA) (Formula XI), ibuprofen and vehicle control were all administered orally, three times a day for 14 days. Their doses were as follows: PI 80 mg/kg, PIA 80 mg/kg, ibuprofen 40 mg/kg (all three are equimolar). […] Group 1: vehicle (n=5-8) • 2. Group 2: ibuprofen (n=5-8) • 3. Group 3: phospho-ibuprofen (PI) (n=5-8) • 4. Group 4: phospho-ibuprofen-amide (PIA) (n=5-8)

[5] = system: mice with chronic constriction injury of the left sciatic nerve (PTPN); assay: von Frey PWT, chronic constriction injury (CCI) model of PTPN, topical compounds; type: in vivo, mouse; conditions: for PWT, g mean ± SEM, Day 14: NOSH-1, LXIX, LXX 5% on left hind paw 3x/day 14 days; for PWT, g Mean ± SEM, Baseline: group value following ligation, prior to treatment
Description: The PWT test was performed following ligation, but prior to treatment to determine baseline values. The PWT was then further measured on day 14.

[6] = system: mice with NTG-induced migraine; assay: von Frey PWT, NTG-induced migraine model, oral or intraperitoneal compounds; type: in vivo, mouse; conditions: oral 30 min after NTG: PS 50, sulindac 33, PN 65, naproxen 35 mg/kg; 30 min after administration
Description: Phosphonaproxen (Formula VIII), and its parent compound, naproxen, were administered orally to each mouse group. All compounds were administered at equimolar doses. In particular, phosponaproxen was administered at 65 mg/kg, and naproxen was administered at 35 mg/kg, 30 minutes after NTG administration. The response of mechanical allodynia was tested 30 minutes after administration.

[7] = system: mice with NTG-induced chronic migraine; assay: von Frey PWT, NTG-induced chronic migraine model; type: in vivo, mouse; conditions: for PWT, g Mean ± SEM, Day 12 (pre-treatment): day 12 after first NTG dose, before compound administration; for PWT, g Mean ± SEM, Baseline: group baseline prior to NTG (Example 17)
Source text: The NTG-induced chronic migraine model was used as described previously.

STZ-diabetic rats = type: in vivo, rat; conditions: rat, in vivo
Source text: The animal model corresponds to that used for Example 4, but using a prevention protocol. As in Example 4, the outcome measure, determining the effect of the treatment on the prevention of mechanical allodynia, was the PWT test, using von Frey filaments. The measurements were taken at day −3, before treatment or induction of neuropathic pain associated with DPN, and again at the end of the study period (day 28).
The rats were randomised into treatment groups as follows, all having an average body weight of about 225 g. • 1. Group 1: naïve rats (n=6) • 2. Group 2: STZ only (n=8) • 3. Group 3: STZ plus vehicle (n=8) • 4. […] Group 5: STZ plus sulindac 0.7% (n=8) • 6. Group 6: STZ plus lidocaine cream 5% (n=8)
Each treatment group was subjected to a PWT assessment at day −3 in order to determine the baseline of mechanical allodynia.
For those rats in the lidocaine treatment group, lidocaine cream was applied only once to both hind paws of the rats 30 min before the final PWT measurement on day 28. On day 0, neuropathic pain associated with DPN was induced with the administration of STZ, and the blood glucose was checked on day 3.

[8] = drug levels in proximal and distal half of the sciatic nerve after topical PS; type: in vivo, mouse; conditions: mouse, in vivo
Description: In a separate experiment we studied 8 mice with paclitaxel-induced PN treated with PS 8% ointment 3×/d for 2 wks. Mice were euthanized as above 30 minutes after the last dose of PS. From these mice we harvested both sciatic nerves dividing each into proximal and distal halves, and combined the corresponding halves of every two animals for assay of drug levels.

CC(=O)Oc1ccccc1C(=O)O [Aspirin, aspirin, reference compound]
PWT [1]: 0.69 ± 0.10 g

CC1=C(CC(=O)Oc2ccc(-c3cc(=S)ss3)cc2)c2cc(F)ccc2/C1=C\c1ccc([S+](C)[O-])cc1 (stereo not shown) [HS-sulindac]
PWT, g Mean ± SEM ([1]; paclitaxel 8 mg/kg x4, 5% topical both hind paws 3x/day 17 days): 0.99 ± 0.15 g | PWT, g ([2]; D 2): D 2 = 0.90 ± 0.09 g | PWT, g ([2]; D 4): D 4 = 1.10 ± 0.05 g | PWT, g ([2]; D 13): D 13 = 1.23 ± 0.06 g | PWL, sec Mean ± SEM [3]: 9.9 ± 0.6 s

CC(C)Cc1ccc(C(C)C(=O)O)cc1 (stereo not shown) [Ibuprofen, ibuprofen, reference compound]
PWT [1]: 0.60 ± 0.08 g | PWT, g Mean ± SEM [4]: 0.58 ± 0.02 g | PWT [2]: 0.53 ± 0.05 g

COc1ccc2cc(C(C)C(=O)Oc3ccc(C(N)=S)cc3)ccc2c1 (stereo not shown) [LXIX]
PWT, g Mean ± SEM ([1]; LXIX 5% topical both hind paws 3x/day, Day 14): Day 14 = 0.86 ± 0.10 g | PWT, g Mean ± SEM ([1]; LXIX 5% topical both hind paws 3x/day, Day 21): Day 21 = 1.20 ± 0.14 g | PWT, g Mean ± SEM ([2]; LXIX 100 mg/kg oral gavage once a day 14 days, day 14): 0.93 ± 0.14 g | PWT, g mean ± SEM, Day 14 [5]: 1.35 ± 0.23 g | PWT, g Mean ± SEM, Baseline [5]: 0.55 ± 0.09 g

CC(C(=O)Oc1ccc(C(N)=S)cc1)c1cccc(C(=O)c2ccccc2)c1 (stereo not shown) [LXX]
PWT, g mean ± SEM, Day 14 [5]: 1.28 ± 0.29 g | PWT, g Mean ± SEM, Baseline [5]: 0.58 ± 0.07 g

O=C(CCCO[N+](=O)[O-])Oc1ccccc1C(=O)Oc1ccc(-c2cc(=S)ss2)cc1 [NOSH1, NOSH-aspirin]
PWT, g ([2]; D 2): D 2 = 0.93 ± 0.17 g | PWT, g ([2]; D 4): D 4 = 1.39 ± 0.15 g | PWT, g ([2]; D 13): D 13 = 1.33 ± 0.11 g | PWT, g mean ± SEM, Day 14 [5]: 2.00 ± 0.00 g | PWT, g Mean ± SEM, Baseline [5]: 0.60 ± 0.00 g

COc1ccc2cc([C@H](C)C(=O)O)ccc2c1 [Naproxen, naproxen, reference compound]
PWT [1]: 0.61 ± 0.11 g | PWT, g Mean ± SEM [6]: 0.56 ± 0.02 g | PWT, g Mean ± SEM ([2]; paclitaxel 8 mg/kg x4, oral gavage 3x/day 7 days: PS 50, sulindac 33, PN 65, naproxen 35 mg/kg, day 7): 0.53 ± 0.05 g

CCOP(=O)(OCC)OCC(COC(=O)C(C)c1ccc(CC(C)C)cc1)OP(=O)(OCC)OCC (stereo not shown) [PGI, phospho-glycerol-ibuprofen]
PWT [2]: 1.60 ± 0.11 g

CCOP(=O)(OCC)OCC(CNC(=O)C(C)c1ccc(CC(C)C)cc1)OP(=O)(OCC)OCC (stereo not shown) [PGIA, phospho-glycerol-ibuprofen-amide]
PWT, g Mean ± SEM ([1]; mouse, in vivo): 1.70 ± 0.25 g

CCOP(=O)(OCC)OCCCCOC(=O)C(C)c1ccc(CC(C)C)cc1 (stereo not shown) [PI, phospho-ibuprofen]
Paw-withdrawal threshold, g Mean ± SEM, Day 0 [1]: 0.64 ± 0.05 g | Paw-withdrawal threshold, g Mean ± SEM, Day 14 ([1]; mouse, in vivo): 0.8 ± 0.07 g | PWT, g Mean ± SEM [4]: 0.82 ± 0.07 g | PWT [2]: 1.41 ± 0.23 g | PWT, g Mean ± SEM ([5]; PI, PN 5% on left hind paw 3x/day 14 days, day 14): 1.54 ± 0.19 g

CCOP(=O)(OCC)OCCCCNC(=O)C(C)c1ccc(CC(C)C)cc1 (stereo not shown) [PIA, phosphoibuprofen-amide]
PWT ([4]; PIA 80 mg/kg oral 3x/day, day 5): 1.43 ± 0.19 g | PWT, g Mean ± SEM [4]: 1.74 ± 0.12 g | PWT [2]: 1.79 ± 0.40 g

CNS(=O)(=O)Cc1ccc2[nH]cc(CCN(C)C)c2c1 [Sumatriptan, sumatriptan]
PWT, g Mean ± SEM, Day 12 (pre-treatment) [7]: 0.57 ± 0.02 g | PWT, g Mean ± SEM, Baseline [7]: 1.90 ± 0.06 g

CC1(C)O[C@@H]2[C@@H](CO[C@@]3(COS(N)(=O)=O)OC(C)(C)O[C@@H]23)O1 [Topiramate, topiramate]
PWT, g Mean ± SEM, Day 12 (pre-treatment) [7]: 0.60 ± 0.00 g | PWT, g Mean ± SEM, Baseline [7]: 2.40 ± 0.24 g

CCOP(=O)(OCC)OCC(COC(=O)c1ccccc1OC(C)=O)OP(=O)(OCC)OCC (stereo not shown) [glycero-phospho-aspirin II]
Paw-withdrawal threshold, g Mean ± SEM, Day 0 [1]: 0.66 ± 0.05 g | Paw-withdrawal threshold, g Mean ± SEM, Day 14 ([1]; mouse, in vivo): 0.69 ± 0.06 g

CCN(CC)CC(=O)Nc1c(C)cccc1C [lidocaine]
von Frey, gm mean ± SEM (STZ-diabetic rats): 34.3 ± 1.6 gm

CC1=C(CC(=O)O)c2cc(F)ccc2/C1=C\c1ccc(S(C)(=O)=O)cc1 [sulindac sulfone]
Fold difference distal vs proximal [8]: 4.5

NO-aspirin
PWT, g Mean ± SEM ([1]; paclitaxel 8 mg/kg x4, 5% topical both hind paws 3x/day, Day 8): 1.47 ± 0.08 g

platinum-sulindac [Pt-sulindac]
PWT, g ([2]; D 2): D 2 = 1.01 ± 0.17 g | PWT, g ([2]; D 4): D 4 = 1.03 ± 0.19 g | PWT, g ([2]; D 13): D 13 = 1.34 ± 0.07 g
